Source: patent US20130123618A1, “Imaging Agents” (priority 2008, published 2013)

Legend:
[1] = tested on: DU145, human prostate cancer cells implanted in flanks; test: tissue distribution in SCID mice bearing DU145 tumors; type: in vivo; conditions: for tissue distribution, blood / tissue distribution, bone / tissue distribution, brain / tissue distribution, heart / tissue distribution, kidney / tissue distribution, liver / tissue distribution, lung / tissue distribution, muscle / tissue distribution, pancreas / tissue distribution, spleen / tissue distribution, tumor: DU145 tumor-bearing SCID mice, tail vein, ave
Experimental: (§1) For the in vitro amino acid uptake studies, all cells can be grown to monolayer confluency in T-175 culture flasks [Corning, Corning, N.Y.] (approx. 1×10^8 cells/flask) in Dulbecco's Modified Eagle's Medium (DMEM) [Sigma, St. Louis, Mo.] in a humidified incubator (37° C., 5% CO2/95% air). Media are supplemented with 10% fetal calf serum [Hyclone, Logan, Utah], and antibiotics (10,000 U/ml penicillin and 10 mg/ml streptomycin) (Sigma, St. Louis, Mo.). For tissue culture passage, monolayer cells are detached by gentle trypsinization, resuspended in complete media, and split 1:10 into new T-flasks. Cultures are passaged weekly, and fed fresh media every 2 to 3 days. To initiate tumor growth in SCID mice, 1×10^6 cells are injected s.c. bilaterally into the flanks (inguinal region) of the recipient animals using a 1 ml syringe with a 27 gauge needle. Ex vivo experiments can be performed with animals containing tumors weighing between 500 mg and 1 g, as estimated by caliper measurement (tumor weight=(π/6)*abc, where a, b and c are the tumor length, width and height, respectively).
(§2) Tissue distribution of the compounds is measured in SCID mice (average weight, 20-25 g) bearing human tumors as follows. The candidate radioligands (20 uCi in 0.4 ml 0.9% NaCl) are injected into the tail vein of tumor-bearing mice. […] Tissues (blood, heart, liver, lungs, kidneys, bone, thyroid, muscle, brain and tumor) are excised, rinsed in saline, and blotted dry. The tissues are weighed, placed into 12×75 mm glass vials, the radioactivity determined with a gamma counter, and the percent dose/gram calculated. Total activities of blood and muscle are calculated by assuming that they account for 7% and 40% of the total body mass, respectively.
(§3) Tables 3-7 show the results of the biodistribution studies with the separate enantiomers of anti-2-[^18F]FACPC and racemic anti-2-[^18F]FACBC as a comparison in SCiD mice implanted in their flanks with A549, human lung cancer cells and DU145, human prostate cancer cells.

[2] = tested on: A549, human lung cancer cells implanted in flanks; test: tissue distribution in SCID mice bearing A549 tumors; type: in vivo; conditions: for tissue distribution, blood / tissue distribution, bone / tissue distribution, brain / tissue distribution, heart / tissue distribution, kidney / tissue distribution, liver / tissue distribution, lung / tissue distribution, muscle / tissue distribution, pancreas / tissue distribution, spleen / tissue distribution, tumor: A549 tumor-bearing SCID mice, tail vein, ave, listed as Anti-2-[^18F]FACPC Enantiomer 1
Experimental: as §1, §2, §3

[3] = A549 cells implanted subcutaneously in flanks of SCID mice

For N[C@]1(C(=O)O)CCC[C@@H]1[18F] (single isomer, unassigned; enantiomer 1) [Enantiomer 1, anti-2-[^18F]FACPC], the “in vivo uptake compared with racemic 2-[^18F]FACBC” value ([1]; DU 145 cells implanted subcutaneously in flanks of SCID mice) was “significantly higher in vivo uptake than racemic 2-[^18F]FACBC”, the “tissue distribution, blood” value ([1]; 15 min) was 3.69 percent dose/gram and the “tissue distribution, bone” value ([1]; 15 min) was 2.89 percent dose/gram. The “tissue distribution, brain” value ([1]; 15 min) was 0.70 percent dose/gram, the “tissue distribution, heart” value ([1]; 15 min) was 3.76 percent dose/gram and the “tissue distribution, kidney” value ([1]; 15 min) was 8.83 percent dose/gram. For the same compound, the “tissue distribution, liver” value ([1]; 15 min) was 4.34 percent dose/gram, the “tissue distribution, lung” value ([1]; 15 min) was 4.38 percent dose/gram and the “tissue distribution, muscle” value ([1]; 15 min) was 2.23 percent dose/gram. The “tissue distribution, pancreas” value ([1]; 15 min) was 47 percent dose/gram, the “tissue distribution, spleen” value ([1]; 15 min) was 7.4 percent dose/gram and the “tissue distribution, tumor” value ([1]; 15 min) was 3.82 percent dose/gram. For the same compound, the “tissue distribution, blood” value ([1]; 30 min) was 2.44 percent dose/gram, the “tissue distribution, bone” value ([1]; 30 min) was 3.06 percent dose/gram and the “tissue distribution, brain” value ([1]; 30 min) was 0.49 percent dose/gram. The “tissue distribution, heart” value ([1]; 30 min) was 2.71 percent dose/gram, the “tissue distribution, kidney” value ([1]; 30 min) was 5.36 percent dose/gram and the “tissue distribution, liver” value ([1]; 30 min) was 2.74 percent dose/gram. The “tissue distribution, lung” value ([1]; 30 min) was 2.78 percent dose/gram, the “tissue distribution, muscle” value ([1]; 30 min) was 2.31 percent dose/gram and the “tissue distribution, pancreas” value ([1]; 30 min) was 28 percent dose/gram. For the same compound, the “tissue distribution, spleen” value ([1]; 30 min) was 6.70 percent dose/gram, the “tissue distribution, tumor” value ([1]; 30 min) was 3.54 percent dose/gram and the “tissue distribution, blood” value ([1]; 60 min) was 1.7 percent dose/gram. The “tissue distribution, bone” value ([1]; 60 min) was 2.58 percent dose/gram, the “tissue distribution, brain” value ([1]; 60 min) was 0.62 percent dose/gram and the “tissue distribution, heart” value ([1]; 60 min) was 2.2 percent dose/gram. The “tissue distribution, kidney” value ([1]; 60 min) was 4.07 percent dose/gram, the “tissue distribution, liver” value ([1]; 60 min) was 1.96 percent dose/gram and the “tissue distribution, lung” value ([1]; 60 min) was 1.91 percent dose/gram. The “tissue distribution, muscle” value ([1]; 60 min) was 2.15 percent dose/gram, the “tissue distribution, pancreas” value ([1]; 60 min) was 22 percent dose/gram and the “tissue distribution, spleen” value ([1]; 60 min) was 2.79 percent dose/gram. The “tissue distribution, tumor” value ([1]; 60 min) was 3.07 percent dose/gram, the “in vivo uptake compared with enantiomer 2” value [2, 3] was “greater uptake than enantiomer 2” and the “in vivo uptake compared with racemic 2-[^18F]FACBC” value [2, 3] was “significantly higher in vivo uptake than racemic 2-[^18F]FACBC”. The “tissue distribution, blood” value ([2]; 15 min) was 3.98 percent dose/gram, the “tissue distribution, bone” value ([2]; 15 min) was 3.08 percent dose/gram and the “tissue distribution, brain” value ([2]; 15 min) was 0.81 percent dose/gram. For the same compound, the “tissue distribution, heart” value ([2]; 15 min) was 3.78 percent dose/gram, the “tissue distribution, kidney” value ([2]; 15 min) was 8.0 percent dose/gram and the “tissue distribution, liver” value ([2]; 15 min) was 4.01 percent dose/gram. For the same compound, the “tissue distribution, lung” value ([2]; 15 min) was 4.09 percent dose/gram, the “tissue distribution, muscle” value ([2]; 15 min) was 2.47 percent dose/gram and the “tissue distribution, pancreas” value ([2]; 15 min) was 57.83 percent dose/gram. For the same compound, the “tissue distribution, spleen” value ([2]; 15 min) was 12.52 percent dose/gram, the “tissue distribution, tumor” value ([2]; 15 min) was 9.77 percent dose/gram and the “tissue distribution, blood” value ([2]; 60 min) was 1.59 percent dose/gram. The “tissue distribution, bone” value ([2]; 60 min) was 2.43 percent dose/gram, the “tissue distribution, brain” value ([2]; 60 min) was 0.81 percent dose/gram and the “tissue distribution, heart” value ([2]; 60 min) was 2.49 percent dose/gram. For the same compound, the “tissue distribution, kidney” value ([2]; 60 min) was 4.02 percent dose/gram, the “tissue distribution, liver” value ([2]; 60 min) was 2.16 percent dose/gram and the “tissue distribution, lung” value ([2]; 60 min) was 2.07 percent dose/gram. For the same compound, the “tissue distribution, muscle” value ([2]; 60 min) was 2.43 percent dose/gram, the “tissue distribution, pancreas” value ([2]; 60 min) was 27.09 percent dose/gram and the “tissue distribution, spleen” value ([2]; 60 min) was 4.13 percent dose/gram. The “tissue distribution, tumor” value ([2]; 60 min) was 7.16 percent dose/gram.
